These results are taken from PMC12525650, “Pharmacokinetic Profile of Extracts from the Chayote (Sechium edule) H387 07 Hybrid and Phytochemical Characterization of Its Segregant H387 M16 for Potential Therapeutic Applications” (Molecules, 2025).

Molecules are shown by their SMILES. Like-named read-outs stand apart in the source and are kept apart here.

The nature of data set [1]: in vivo. Also on record: species or system female CD-1 mice (Mus musculus L.). How it is done: Pharmacokinetic parameters were evaluated in female CD-1 mice (Mus musculus L.) provided by the vivarium of the Faculty of Higher Studies, Zaragoza, National Autonomous University of Mexico. All mice were clinically healthy, approximately 12 weeks old, and weighed ~30 g. […] Female mice were selected as the available cohort from the institutional vivarium, and their use allowed us to establish baseline pharmacokinetic parameters under standardized conditions. […] Animals were randomly assigned to treatment groups. Treatment allocation and sample collection were blinded. All experimental procedures were approved by the Research Ethics Committee of the Faculty of Higher Studies, Zaragoza (FESZ/CEI/1/1/5/27/23).
For the HPLC quantification of metabolites, concentrations were expressed as µg/mL for serum and urine and as µg/mg of tissue for liver samples. The results were translated into graphical form using the identified metabolites. The Cmax and time to reach maximum concentration (Tmax) of the secondary metabolites were obtained directly from the concentration–time curve.
The area under the plasma concentration–time curve from time zero to the last measurable concentration ( AUC0−t ) was calculated using the linear trapezoidal rule, according to the following formula: AUC0−t=∑i=1n−1Ci+Ci+1/2×ti+1−ti where Ci and Ci+1 are the plasma concentrations at consecutive time points ti and ti+1 . The total area under the curve ( AUC0−∞ ) was obtained as the sum of AUC0−t and the extrapolated area from the last measurable concentration to infinity, calculated as:(1) AUC0−∞=AUC0−t+Clast/kel where Clast is the final observed concentration and kel is the terminal final elimination constant estimated from the slope of the log-linear portion of the concentration–time curve.

The conditions of data set [2]: cited from earlier work.
The conditions of data set [3]: cited from earlier work. This is another data set of the same source.
[4] abbreviates: mice, liver, oral extract 8, 125, 250 mg/kg, 1, 6, 24, 48 h.
[5] abbreviates: mice, plasma, oral extract 8 mg/kg.
[6] abbreviates: mice, oral extract 8, 125, 250 mg/kg, 1, 6, 24, 48 h.
[7] abbreviates: female, CD-1, mouse, in vivo, po, 8 mg/kg.
Setting [8] is: mice, serum, oral extract 8, 125, 250 mg/kg, 1, 6, 24, 48 h.

Consider `CC(=O)OC(C)(C)/C=C/C(=O)[C@](C)(O)[C@H]1[C@H](O)C[C@@]2(C)[C@@H]3CC=C4[C@@H](C=C(O)C(=O)C4(C)C)[C@]3(C)C(=O)C[C@]12C` [Cucurbitacin E, cucurbitacin E], for which, in data set [1] (female, CD-1, mouse, in vivo, po, 8 mg/kg, read-out: Cmax), the Cmax was 420 ng/mL. Moreover, the Tmax in data set [1] (female, CD-1, mouse, in vivo, mice, plasma, oral extract 8 mg/kg, Table S1, unit inferred, read-out: Tmax) was found to be 2.5 ± 0.3 h. Besides, in data set [1] (female, CD-1, mouse, in vivo, mice, plasma, oral extract 8 mg/kg, read-out: AUC0−t), the AUC(0-t) stood at 1450 ± 110 ng·h/mL. The AUC in data set [1] (female, CD-1, mouse, in vivo, mice, plasma, oral extract 8 mg/kg, read-out: AUC0 ∞) came out at 1800 ng·h/mL. Also, in data set [1] (female, CD-1, mouse, in vivo, mice, plasma, oral extract 8 mg/kg, read-out: T1/2 (converted)), the half-life was 8.4 ± 1.2 h. Also, the “liver concentration, change with dose and time” value (shortened to “liver concentration, change”) in data set [1] (setting [4]) is “no significant variations”. In data set [1] (setting [5]), the Clearance amounted to 10.8 mL/min/kg and the Vd was determined as 4.8 L/kg. Further, the “urine concentration, change with dose and time” value (shortened to “urine concentration, change”) in data set [1] (setting [6]) is given as “clear increase under the 8 mg/kg treatment”. Further, the peak plasma concentration entry in data set [2] (at 2 h post-dose) was “approximately 0.009 µg/mL”.

On to `O=C1C[C@@H](c2ccc(O)cc2)Oc2cc(O)cc(O)c21` [Naringenin], for which, in data set [1] (female, CD-1, mouse, in vivo), the “liver concentration, change” value is “significantly decreased after 24–48 h with the 8 mg/kg dose”.

`O=c1cc(-c2ccc(O)cc2)oc2cc(O[C@@H]3O[C@H](CO)[C@@H](O)[C@H](O)[C@H]3O)cc(O)c12` [apigenin-7-O-β-D-glucoside, reference compound]: the “AUC0−t” value in data set [3] (rat, in vivo, iv) is 680 to 1560 ng·h/mL.

As to `O=c1cc(-c2ccc(O)cc2)oc2cc(O)cc(O)c12` [Apigenin], in data set [1] (setting [7]), the AUC is 2390 ± 210 ng·h/mL, the AUC(0-t) stood at 2120 ng·h/mL, the Clearance stood at 13.7 mL/min/kg and the highest level (Cmax) was 850 ± 70 ng/mL. In data set [1] (setting [7]), the T1/2 entry is given as “greater than 5.6 h” and the Vd is listed as 3.4 ± 0.5 L/kg. This compound also had a half-life in data set [1] (female, CD-1, mouse, in vivo, po, 8 mg/kg, T1/2) of 5.6 ± 0.3 h. The Tmax in data set [1] (female, CD-1, mouse, in vivo, po, 8 mg/kg, Tmax) is 1.5 ± 0.3 h. Moreover, the “serum concentration, change with dose and time” value (shortened to “serum concentration, change”) in data set [1] (setting [8]) was “significantly increased with the 125 mg/kg doses at 24 and 48 h”. In data set [3] (reported in rats), the T1/2 is 1.8 to 4.2 h.

Consider `CC(C)(O)/C=C/C(=O)[C@](C)(O)[C@H]1[C@H](O)C[C@@]2(C)[C@@H]3CC=C4[C@@H](C[C@H](O)C(=O)C4(C)C)[C@]3(C)C(=O)C[C@]12C` [CuD, Cucurbitacin D], for which the Tmax in data set [1] (female, CD-1, mouse, in vivo, mice, serum/plasma, oral extract 125 mg/kg, read-out: Tmax) is 24 h. In addition, the “liver concentration, change” value in data set [1] (setting [4]) is “no significant variations”.

As to `CC(C)(O)/C=C/C(=O)[C@](C)(O)[C@H]1[C@H](O)C[C@@]2(C)[C@@H]3CC=C4[C@@H](C=C(O)C(=O)C4(C)C)[C@]3(C)C(=O)C[C@]12C` [CuI, cucurbitacin I], the “liver concentration, change” value in data set [1] (setting [4]) is recorded as “no significant variations”. Further, the liver concentration in data set [1] (mice, liver, oral extract 125 and 250 mg/kg) was greater than 20 µg/mg. Moreover, the “serum concentration, change” value in data set [1] (setting [8]) was “concentrations remained near the limit of quantification”.

As for `CC(=O)OC(C)(C)CCC(=O)[C@](C)(O)[C@H]1[C@H](O)C[C@@]2(C)[C@@H]3CC=C4[C@@H](C[C@H](O)[C@@H](O)C4(C)C)[C@]3(C)C(=O)C[C@]12C` [CuIIA, cucurbitacin IIA], the “liver concentration, change” value in data set [1] (setting [4]) is reported as “remained significant for up to 48 h with the 250 mg/kg treatment”. For the same compound, in data set [1] (mice, serum, across all doses (8, 125, 250 mg/kg)), the “serum Tmax” value is 24 h. The “serum concentration, change” value in data set [1] (setting [8]) is given as “transient decrease to near-zero concentrations at 6 h, followed by a marked increase at 24 h”. Moreover, the “urine concentration, change” value in data set [1] (setting [6]) is listed as “high concentrations were observed in urine”. Moreover, the “time of absorption (Tmax) in previous reports” value in data set [2] is recorded as ~ 20 min.

Regarding `COc1ccc([C@@H]2CC(=O)c3c(O)cc(O[C@@H]4O[C@H](CO[C@@H]5O[C@@H](C)[C@H](O)[C@@H](O)[C@H]5O)[C@@H](O)[C@H](O)[C@H]4O)cc3O2)cc1O` [hesperidin], the “urine concentration, change” value in data set [1] (setting [6]) was “increased under the 8 mg/kg dose at 6 and 24 h”.

As for `O=C(CCc1ccc(O)cc1)c1c(O)cc(O)cc1O` [Phloretin], in data set [1] (female, CD-1, mouse, in vivo), the “liver concentration, change” value is “increased significantly with a dose of 125 mg/kg at 6 and 48 h post-treatment”; the “serum concentration, change” value was “decreased between 6 and 24 h at 125 mg/kg”. For the same compound, the Tmax in data set [1] (female, CD-1, mouse, plasma, po, 8 mg/kg, mice, plasma, oral extract 8 mg/kg, Table S1, unit inferred, read-out: Tmax) came to 2 ± 0.4 h. In addition, the half-life in data set [1] (female, CD-1, mouse, plasma, po, 8 mg/kg, mice, plasma, oral extract 8 mg/kg, read-out: T1/2 (converted)) was 4.2 ± 0.6 h. In addition, in data set [1] (female, CD-1, mouse, plasma, po, 8 mg/kg, mice, plasma, oral extract 8 mg/kg, read-out: Tmax), the Tmax is 4.2 h. Moreover, the Cmax in data set [1] (female, CD-1, mouse, plasma, po, 8 mg/kg, read-out: Cmax) amounted to 1120 ng/mL. Further, the AUC(0-t) in data set [1] (female, CD-1, mouse, mice, plasma, oral extract 8 mg/kg, read-out: AUC0−t) was determined as 3450 ± 310 ng·h/mL. Moreover, the AUC in data set [1] (female, CD-1, mouse, mice, plasma, oral extract 8 mg/kg, read-out: AUC0 ∞) is 6100 ng·h/mL. For the same compound, in data set [1] (setting [5]), the Clearance came to 13.7 mL/min/kg and the Vd amounted to 0.95 L/kg.

As to `C[C@@H]1O[C@@H](OC[C@H]2O[C@@H](Oc3c(-c4ccc(O)c(O)c4)oc4cc(O)cc(O)c4c3=O)[C@H](O)[C@@H](O)[C@@H]2O)[C@H](O)[C@H](O)[C@H]1O` [Rutin], the “serum concentration, change” value in data set [1] (setting [8]) is listed as “marked decrease at the 250 mg/kg dose”.

A word on the Cmax: it is the highest concentration seen after dosing. One may read the Tmax as the time at which the peak concentration occurs.
